Measured values from patent publication US5300629A, “Bactericidal and/or bacteriostatic peptides isolated from hemolymph of honeybees” (Plant Genetic Systems, N.V., priority 1987, dated 1994).
Values after ≈ are worked out from the molar mass of the structure shown. Where a SMILES comes first, the peptide text is derived from it.

Columns and labels:
Format in all cases: cell-based
E. coli NCTC 9001 [1] = assay: Bactericidal activity, method not stated; settings: lyophilized apidaecins resuspended in PBS
[2] = system: Pseudomonas syringae pv. tomato NCPPB 1106; assay: Inhibition zone assay; settings: * synthetic ApidIa and heattreated immune lymph instead of Bee6 and native immune lymph
[3] = system: Erwinia carotovora var carotovora NCPPB 312; assay: Minimal inhibitory concentration in liquid culture; settings: 200 μl rich medium, 10^4 log-phase bacteria
[4] = system: Pseudomonas solanacearum ATCC 11696; settings: 200 μl rich medium, 10^4 log-phase bacteria
[5] = system: Agrobactierium tumefaciens DSM 3129; assay: Minimal inhibitory concentration in liquid culture; settings: 200 μl rich medium, 10^4 log-phase bacteria
[6] = system: Salmonella typhimurium ATCC 23565; assay: Minimal inhibitory concentration in liquid culture; settings: 200 μl rich medium, 10^4 log-phase bacteria
[7] = system: Pseudomonas syringae pv. maculicola NCPPB 1776; assay: Minimal inhibitory concentration in liquid culture; settings: 200 μl rich medium, 10^4 log-phase bacteria
[8] = system: Pseudomonas solanacearum ATCC 11696; design: key: --: "-" means that no inhibition has been found; settings: * synthetic ApidIa and heattreated immune lymph instead of Bee6 and native immune lymph
[9] = system: Citrobacter freundii ATCC 8090; assay: Minimal inhibitory concentration in liquid culture; settings: 200 μl rich medium, 10^4 log-phase bacteria
[10] = system: Rhizobium meliloti ZB 314; assay: Minimal inhibitory concentration in liquid culture; settings: 200 μl rich medium, 10^4 log-phase bacteria
[11] = system: Pseudomonas syringae pv. tabaci NCPPB 1237; assay: Minimal inhibitory concentration in liquid culture; settings: 200 μl rich medium, 10^4 log-phase bacteria
[12] = system: Escherichia coli NCTC 9001; assay: Minimal inhibitory concentration in liquid culture; settings: 200 μl rich medium, 10^4 log-phase bacteria
[13] = system: Pseudomonas syringae pv. maculicola NCPPB 1776; assay: Inhibition zone assay; settings: * synthetic ApidIa and heattreated immune lymph instead of Bee6 and native immune lymph
[14] = system: Bacillus megaterium QB 1551; assay: Minimal inhibitory concentration in liquid culture; settings: 200 μl rich medium, 10^4 log-phase bacteria, + = no inhibition at maximal value
[15] = system: protoplasts derived from Lactobacillus sp; assay: Protoplast regeneration, agar diffusion assay; settings: Lactobacillus protoplasts on RM MRS medium, 4 μg/well
Protocol: Protoplasts were made using lysozyme concentrations ranging between 0 and 5 mg/ml and then incubated for 1 hour in the presence of Apid Ia (concentrations ranging between 0-10 μg/ml) . Cells were pelleted, resuspended and plated out on RM MRS. To estimate the ratio of protoplasts/normal cells, controls were plated out on MRS without the stabilizing sucrose. This prevented the regenerating of the protoplasts and enabled the deduction of the number of normal cells. To evaluate the regeneration capability of the said protoplasts in the presence of Apid Ia an agar diffusion assay was performed : the protoplasts were applied on RM MRS medium, wells were made and filled up with an apidaecin solution (4 μg/well).

Shigella flexneri CP 87 = assay: Minimal inhibitory concentration in liquid culture; settings: 200 μl rich medium, 10^4 log-phase bacteria
Protocol: (§1) In addition the exact concentration was determined precisely by amino-acid analysis and an equal sample of natural Bee 6b was prepared, allowing to compare the bactericidal activity of both natural and synthetic apidaecins by means of growth inhibition assays in liquid cultures (see mat & Meth.). The minimal inhibitory concentrations (μg/ml) were determined in liquid culture : 200 μl of a rich medium (trypticase soy broth or nutrient broth) was inoculated with 10^4 log-phase bacteria. Peptide concentrations ranged between 0 and 200 μg/ml. The values express μg/ml; when no inhibition was noticed the maximal values are given (+200 μg/ml or +50 μg/ml). All peptides were chemically synthesized, except for bee 6b which is purified from bee lymph.

[16] = system: Xanthomonas campestris pv. vesicatoria LMG 905; assay: Minimal inhibitory concentration in liquid culture; settings: 200 μl rich medium, 10^4 log-phase bacteria, + = no inhibition at maximal value
Protocol: as §1

[17] = system: Corynebacterium insidiosum NCPPB 1109; assay: Minimal inhibitory concentration in liquid culture; settings: 200 μl rich medium, 10^4 log-phase bacteria
Protocol: as §1

[18] = system: Corynebacterium michiganense pv. michiganense NCPPB 1573; assay: Minimal inhibitory concentration in liquid culture; settings: 200 μl rich medium, 10^4 log-phase bacteria, + = no inhibition at maximal value
Protocol: as §1

[19] = system: Erwinia carotovora var atroseptica LMG 2385; assay: Minimal inhibitory concentration in liquid culture; settings: 200 μl rich medium, 10^4 log-phase bacteria
[20] = system: Pseudomonas syringae pv. tomato NCPPB 1106; assay: Minimal inhibitory concentration in liquid culture; settings: 200 μl rich medium, 10^4 log-phase bacteria
[21] = system: Yersinia enterocolitica PGS C-1106; assay: Inhibition zone assay; settings: * synthetic ApidIa and heattreated immune lymph instead of Bee6 and native immune lymph
[22] = system: Erwinia salicis NCPPB 2530; assay: Minimal inhibitory concentration in liquid culture; settings: 200 μl rich medium, 10^4 log-phase bacteria
Salmonella Newport CD 94 = assay: Minimal inhibitory concentration in liquid culture; settings: 200 μl rich medium, 10^4 log-phase bacteria
[23] = system: Xanthomonas campestris pv. campestris A 902; assay: Inhibition zone assay; design: key: --: "-" means that no inhibition has been found; settings: * synthetic ApidIa and heattreated immune lymph instead of Bee6 and native immune lymph
E. coli NCTC 9001 [24] = settings: E. coli NCTC 9001; 4 μg/well
Protocol: Whole lymph or purified components, resuspended in PBS to a final volume equal to the starting material (heated lymph), was applied in 3 mm wells on agar plates seeded with the test organisms. Antibacterial activity was determined by measuring the growth-inhibition zones (in mm).
Test conditions: agar inhibition zone obtained with 10 namomole apidaecin, resuspended in 20 μl H2 O/well.

[25] = system: Xanthomonas campestris pv. campestris A 902; assay: Minimal inhibitory concentration in liquid culture; settings: 200 μl rich medium, 10^4 log-phase bacteria, + = no inhibition at maximal value
[26] = system: Pseudomonas syringae pv. tabaci NCPPB 1237; assay: Inhibition zone assay; settings: * synthetic ApidIa and heattreated immune lymph instead of Bee6 and native immune lymph

CC[C@H](C)[C@H](NC(=O)[C@H](CCCNC(=N)N)NC(=O)[C@@H]1CCCN1C(=O)[C@H](Cc1c[nH]cn1)NC(=O)[C@@H]1CCCN1C(=O)[C@@H]1CCCN1C(=O)[C@H](CCCNC(=N)N)NC(=O)[C@@H]1CCCN1C(=O)[C@H](CCC(N)=O)NC(=O)[C@@H]1CCCN1C(=O)[C@@H](NC(=O)[C@H](Cc1ccc(O)cc1)NC(=O)[C@@H](NC(=O)[C@@H]1CCCN1C(=O)[C@H](CCCNC(=N)N)NC(=O)[C@H](CC(N)=O)NC(=O)[C@H](CC(N)=O)NC(=O)CN)C(C)C)[C@@H](C)CC)C(=O)O [Apid Ia] (H-GNNRPVYIPQPRPPHPRI-OH)
bactericidal activity (E. coli NCTC 9001 [1]): possessed a bactericidal activity | diameter of growth-inhibition zone [2]: 9 mm | minimal inhibitory concentration [3]: 1 µg/mL (≈ 0.474 µM) | minimal inhibitory concentration [4]: 25 µg/mL (≈ 11.9 µM) | minimal inhibitory concentration [5]: 0.2 µg/mL (≈ 0.0949 µM) | minimal inhibitory concentration [6]: 0.1 µg/mL (≈ 0.0474 µM) | minimal inhibitory concentration [7]: 0.5 µg/mL (≈ 0.237 µM) | diameter of growth-inhibition zone [8]: -- | minimal inhibitory concentration [9]: 0.15 µg/mL (≈ 0.0711 µM) | minimal inhibitory concentration [10]: 0.1 µg/mL (≈ 0.0474 µM) | minimal inhibitory concentration [11]: 0.5 µg/mL (≈ 0.237 µM) | minimal inhibitory concentration [12]: 0.1 µg/mL (≈ 0.0474 µM) | diameter of growth-inhibition zone [13]: 8 mm | minimal inhibitory concentration [14]: 150 µg/mL | inhibition zone, regeneration of protoplasts [15]: No inhibition zone was noticed | minimal inhibitory concentration (Shigella flexneri CP 87): 0.1 µg/mL (≈ 0.0474 µM) | minimal inhibitory concentration [16]: > 50 µg/mL | minimal inhibitory concentration [17]: 50 µg/mL (≈ 23.7 µM) | minimal inhibitory concentration [18]: > 50 µg/mL | minimal inhibitory concentration [19]: 1 µg/mL (≈ 0.474 µM) | minimal inhibitory concentration [20]: 0.2 µg/mL (≈ 0.0949 µM) | diameter of growth-inhibition zone [21]: 9 mm | minimal inhibitory concentration [22]: 0.02 µg/mL (≈ 0.00949 µM) | minimal inhibitory concentration (Salmonella Newport CD 94): 0.2 µg/mL (≈ 0.0949 µM) | diameter of growth-inhibition zone [23]: -- | inhibition zone, positive control of the protoplast test (E. coli NCTC 9001 [24]): clear inhibition zone | minimal inhibitory concentration [25]: > 50 µg/mL | diameter of growth-inhibition zone [26]: 7 mm
